Reference: patent US20070248694A1, “Anti-inflammatory properties of a standardized extract from Euphorbia hirta (PM-251) activity and for treating conditions of inflammation” (PhytoMyco Research Corporation, priority 2006, published 2007)

How the values were obtained:
Format in all cases: in vivo, Wister strain - Albino rats
[1] = system: Cotton pellet induced granuloma; assay: Cotton wool pellet induced granuloma; conditions: 100 mg/kbw oral once daily
Method: (§1) Dose Levels • Control: One ml of 1% gum acacia • Standard: 100 mg/kbw (kilogram body weight) in acute models and sub-acute models. • T1:100 mg/kbw and T2:200 mg/kbw in Carrageenin and Turpentine models and T1: 200 mg/kbw and T2:400 mg/kbw in Cotton pellet granuloma and Formalin induced arthritis model. […] All drugs (dose) were given only once a day. 2. Method of performance study • Main assays: The test article, the standard and control were administered: a. Carrageenin induced rat paw edema: The respective drug was administered in single dose through mouth 1 hour before the administration of phlogistic agent. The method used comprises of the study of the acute inflammatory reaction induced by injecting the phlogistic agent carrageenin into the subplantar surface of the right hindpaw of the rat. […] Lesser the mean paw volume more was the anti-inflammatory potential and vice versa. • b. Turpentine induced arthritis: The respective drug was administered in single dose through mouth 1 hour before the administration of phlogistic agent. […] The maximum diameter of the right knee joint was measured at ‘0’ hour and at the end of ‘4’ hours after the injection with the help of screw gauge and the difference between ‘0’ hour and ‘4’ hour reading gave the actual arthritis. […]

[2] = system: Formalin induced peritonitis; assay: Formalin induced experimental peritonitis; conditions: 100 mg/kbw oral single dose
Method: as §1

[3] = system: Carrageenin induced rat paw edema; assay: Carrageenin induced rat paw edema; conditions: 100 mg/kbw oral single dose
Method: Dose Levels • Control: One ml of 1% gum acacia • Standard: 100 mg/kbw (kilogram body weight) in acute models and sub-acute models. • T1:100 mg/kbw and T2:200 mg/kbw in Carrageenin and Turpentine models and T1: […] All drugs (dose) were given only once a day. 2. Method of performance study • Main assays: The test article, the standard and control were administered: a. Carrageenin induced rat paw edema: The respective drug was administered in single dose through mouth 1 hour before the administration of phlogistic agent. The method used comprises of the study of the acute inflammatory reaction induced by injecting the phlogistic agent carrageenin into the subplantar surface of the right hindpaw of the rat. […] Lesser the mean paw volume more was the anti-inflammatory potential and vice versa. • b. Turpentine induced arthritis: The respective drug was administered in single dose through mouth 1 hour before the administration of phlogistic agent. This is one of the commonly employed models to induce arthritis in the rat; 0.01 ml turpentine was injected to the right knee joint. The maximum diameter of the right knee joint was measured at ‘0’ hour and at the end of ‘4’ hours after the injection with the help of screw gauge and the difference between ‘0’ hour and ‘4’ hour reading gave the actual arthritis. […]

[4] = system: Turpentine induced arthritis; assay: Turpentine induced arthritis; conditions: 100 mg/kbw oral single dose
Method: Dose Levels • Control: One ml of 1% gum acacia • Standard: 100 mg/kbw (kilogram body weight) in acute models and sub-acute models. • T1:100 mg/kbw and T2:200 mg/kbw in Carrageenin and Turpentine models and T1: […] All drugs (dose) were given only once a day. 2. Method of performance study • Main assays: The test article, the standard and control were administered: a. Carrageenin induced rat paw edema: The respective drug was administered in single dose through mouth 1 hour before the administration of phlogistic agent. The method used comprises of the study of the acute inflammatory reaction induced by injecting the phlogistic agent carrageenin into the subplantar surface of the right hindpaw of the rat. […] Lesser the mean paw volume more was the anti-inflammatory potential and vice versa. • b. Turpentine induced arthritis: The respective drug was administered in single dose through mouth 1 hour before the administration of phlogistic agent. This is one of the commonly employed models to induce arthritis in the rat; 0.01 ml turpentine was injected to the right knee joint. The maximum diameter of the right knee joint was measured at ‘0’ hour and at the end of ‘4’ hours after the injection with the help of screw gauge and the difference between ‘0’ hour and ‘4’ hour reading gave the actual arthritis. Lesser the mean diameter right knee joint more the anti-inflammatory potential and vice versa. • c. Formalin induced experimental peritonitis: The respective drug was administered in single dose through mouth 1 hour before the administration of phlogistic agent by injecting 1 ml of 1% formalin in to the peritoneal cavity. […] Lesser the mean exudates more is the anti-inflammatory potential and vice versa. • d. Cotton wool pellet induced granuloma: The respective drug was administered by mouth in single dose one hour prior to the cotton pellet implantation on the first day and subsequently every day for next five days. The extent of formation of foreign body granuloma (granulation tissue) is the main criterion for evaluating anti-inflammatory activity. […]

## COc1ccc2c(c1)c(CC(=O)O)c(C)n2C(=O)c1ccc(Cl)cc1 [Indomethacin]
[1]
  Inhibitory Potency Values: 2.38
[1]; granulation tissue weight on dried cotton pellet, sixth day
  Mean volume (in mg.) (±): 6.54 ± 0.36 mg
[2]
  Inhibitory Potency Values: 1.38
[2]; peritoneal exudate volume after 4 hours
  Mean volume (in ml.) (±) SEM: 0.57 ± 0.14 mL
[3]
  Inhibitory Potency Values: 3.98
[3]; paw edema volume, difference 0 h to 4 h
  Mean volume (in ml.) (±) SEM: 0.88 ± 0.52 mL
[4]
  % inhibition with respect to control: 84.95%
  Inhibitory Potency Values: 0.85
[4]; right knee joint diameter, difference 0 h to 4 h
  Mean volume (in mm.) (±) SEM: 1.55 ± 0.19 mm
